Source: patent US20240115654A1, “INTRAVENOUS ADMINISTRATION OF ENGINEERED ANTIMICROBIAL AMPHIPHILIC PEPTIDES” (priority 2021, published 2024)
Where two headings read alike, the source gives them in different places. Peptide text beside a SMILES is read from it.

Text: All subjects who met eligibility criteria were confined to the clinical research unit from […] through Day 3. At admission, physical examination, vital signs, 12 lead ECG and weight were obtained, medical and medication history were updated if necessary, safety blood tests (hematology and chemistry), urinalysis, urine drug screen and an alcohol breath test were repeated and a urine pregnancy test was done for women of childbearing potential.
At each dose level, there were 2 sentinel subjects, (1 active, 1 placebo), who were dosed at least 48 hours in advance of the other subjects in their respective group. Following review of safety data, including physical examination, vital signs, and review of adverse events from the first 2 subjects, enrolment in the cohort continued.
A 12-lead ECG was performed on Day 1, within 60 minutes of infusion start (in triplicate), mid-way through the infusion, at the completion of the infusion, 30 minutes after completion of the infusion and at various timepoints following the end of the infusion.
Vital signs were recorded within 60 minutes pre-dose, at the mid-point of the infusion and post dose vitals were assessed at completion of the infusion, 0.5, 1, 2, 3, 4, 6, 9, 12, 24 and 48 hours post dose, after at least 3 minutes of rest in supine position.
Subjects returned to the study center 7 days after dosing, for the termination visit. A full physical examination, vital signs and weight were obtained, concomitant medications were updated if necessary, safety blood specimens (haematology and chemistry, PT and aPTT) and urine were collected for urinalysis and urine drug screening. A serum pregnancy test was done for women of childbearing potential and a 12-lead ECG was performed.
In this study dose limiting toxicity (DLT) was defined as any drug related ≥Grade 3 AEs occurring despite optimal therapeutic interventions (which included but were not limited to allergic/hypersensitivity reactions, dermatological reactions/infusion site reactions, haematological toxicities such as neutropenia, thrombocytopenia and anaemia and clinical chemistry abnormalities) experienced up to Day 7 (Termination Visit).
(§1) All subjects who received any amount of study drug were included in the safety analysis (Safety population).
The study was a double blinded, randomized, placebo-controlled study. The placebo administered was 0.9% sodium chloride.
On Day 1 (day of dosing), subjects were randomly assigned either peptide IV or Placebo IV. At each dose level, there were 2 sentinel subjects, (1 active, 1 placebo), who were dosed at least 48 hours in advance of the other subjects in their respective group. Following review of safety data, including physical examination, vital signs, and review of adverse events from the first 2 subjects, enrolment in the cohort continued. All subjects who met eligibility criteria were confined to the clinical research unit from Day −2 through Day 3. At admission, physical examination, vital signs, 12 lead ECG and weight were obtained, medical and medication history were updated if necessary, safety blood tests (hematology and chemistry), urinalysis, urine drug screen and an alcohol breath test were repeated and a urine pregnancy test was done for women of childbearing potential.
as §1

[1] = Cohort 4: 0.5 mg/kg IV 2-hr infusion (N = 6)
[2] = Cohort 4: 0.5 mg/kg IV 2 hr infusion, subject 001-S086
[3] = Cohort 4: 0.5 mg/kg IV 2 hr infusion, subject 001-S093
[4] = Cohort 4: 0.5 mg/kg IV 2 hr infusion, subject 001-S094
[5] = Cohort 5 1 mg/kg IV 4-hr infusion, participant 001-S119
[6] = Cohort 5 1 mg/kg IV 4-hr infusion, participant 001-S127
[7] = Cohort 5: 1 mg/kg IV 4-hr infusion (N = 6)
[8] = Cohorts 1-5, comparing dose level, infusion time, placebo and active

## CC(C)[C@H](NC(=O)[C@H](Cc1c[nH]c2ccccc12)NC(=O)[C@H](CCCNC(=N)N)NC(=O)[C@H](CCCNC(=N)N)NC(=O)[C@@H](NC(=O)[C@@H](NC(=O)[C@H](CCCNC(=N)N)NC(=O)[C@@H](NC(=O)[C@@H](NC(=O)[C@H](CCCNC(=N)N)NC(=O)[C@H](CCCNC(=N)N)NC(=O)[C@H](Cc1c[nH]c2ccccc12)NC(=O)[C@@H](NC(=O)[C@H](CCCNC(=N)N)NC(=O)[C@H](CCCNC(=N)N)NC(=O)[C@@H](NC(=O)[C@H](CCCNC(=N)N)NC(=O)[C@H](CCCNC(=N)N)NC(=O)[C@@H](NC(=O)[C@H](Cc1c[nH]c2ccccc12)NC(=O)[C@H](CCCNC(=N)N)NC(=O)[C@@H](N)CCCNC(=N)N)C(C)C)C(C)C)C(C)C)C(C)C)C(C)C)C(C)C)C(C)C)C(=O)N[C@@H](CCCNC(=N)N)C(=O)N[C@@H](CCCNC(=N)N)C(N)=O [SEQ ID NO: 1] (H-RRWVRRVRRVWRRVVRVVRRWVRR-NH2)
[1]
  Treatment-related TEAE: Skin and Subcutaneous Tissue Disorders, participants n (%): 0
  Treatment-related TEAE: Thrombocytopenia, participants n (%): 0
  Treatment-related TEAE: Vascular Disorders, participants n (%): 0
  Treatment-related TEAE: Vessel puncture site erythema, participants n (%): 0
  Treatment-related TEAE: Vessel puncture site pain, occurrences m: 1
  Treatment-related TEAE: Vessel puncture site pain, participants n (%): 1 (16.7%)
  Treatment-related TEAE: Vomiting, participants n (%): 0
[2]
  Infusion related reaction: End Date/Time: End of Study
  Infusion related reaction: Severity Grade: Grade 1
  Infusion related reaction: Start Date/Time: Day 1/1 hour
Cohort 4: 0.5 mg/kg IV 2 hr infusion, subject 001-S086, 0.5 mg/kg
  Infusion related reaction: Event: Myalgia
[3]
  Infusion related reaction: End Date/Time: Day 1/12 hours
  Infusion related reaction: Event: Discomfort at right
  Infusion related reaction: Severity Grade: Grade 1
[4]
  Infusion related reaction: End Date/Time: Day 1/2 hours
  Infusion related reaction: Event: Right arm cannula
  Infusion related reaction: Severity Grade: Grade 1
Cohort 5 1 mg/kg IV 4-hr infusion, participant 001-S113
  Severity of event: Localized IRR, Right arm: Grade 1
Cohort 5 1 mg/kg IV 4-hr infusion, participant 001-S117
  Severity of event: Localized IRR, Left arm: Grade 1
[5]
  Severity of event: Lightheadedness: Grade 1
  Severity of event: Localized IRR, Left arm: Grade 1
Cohort 5 1 mg/kg IV 4-hr infusion, participant 001-S120
  Severity of event: Pain at dosing site, Left arm: Grade 1
Cohort 5 1 mg/kg IV 4-hr infusion, participant 001-S122
  Severity of event: Localized IRR, Left arm: Grade 1
[6]
  Severity of event: IRR, Right arm; pain in region of right biceps muscle: Grade 1
  Severity of event: Right-sided headache: Grade 1
Cohort 5, 1 mg/kg over 4 hours in 250 mL, 6 participants, all Grade 1
  IRRs, events: 9
[7]
  Number of Participants Reporting at least: Onc TEAE Leading to Study Withdrawal, n (%): 0
  Number of Participants Reporting at least: One Dose-Limiting Toxicity, n (%): 0
  Number of Participants Reporting at least: One Related TEAE, n (%): 6 (100%)
  Number of Participants Reporting at least: One Serious TEAE, n (%): 0
  Number of Participants Reporting at least: One TEAE Leading to Study Drug Discontinuation, n (%): 0
  Number of Participants Reporting at least: One TEAE with Common Terminology Criteria for Adverse Events (CTCAE) Toxicity ≥ Grade 3, n (%): 0
  Number of Participants Reporting at least: One TEAE, n (%): 6 (100%)
  One Related TEAE, m: 11
  One TEAE, m: 20
  Participants With At Least 1 TEAE, n (%): 6 (100%)
  Participants With At Least 1 TEAE, occurrences m: 20
  Participants With At Least 1 Treatment-Related TEAE, n (%): 6 (100%)
  Participants With At Least 1 Treatment-Related TEAE, occurrences m: 11
  TEAE Severity Grade 1, m: 19
  TEAE Severity Grade 1, n (%): 6 (100%)
  TEAE Severity Grade 2, m: 1
  TEAE Severity Grade 2, n (%): 1 (16.7%)
  TEAE by system organ class: Blood and Lymphatic System Disorders, participants n (%): 0
  TEAE by system organ class: Gastrointestinal Disorders, occurrences m: 1
  TEAE by system organ class: Gastrointestinal Disorders, participants n (%): 1 (16.7%)
  TEAE by system organ class: General Disorders and Administration Site Conditions, occurrences m: 9
  TEAE by system organ class: General Disorders and Administration Site Conditions, participants n (%): 6 (100%)
  TEAE by system organ class: Infections and Infestations, participants n (%): 0
  TEAE by system organ class: Injury, Poisoning, and Procedural Complications, occurrences m: 5
  TEAE by system organ class: Injury, Poisoning, and Procedural Complications, participants n (%): 4 (66.7%)
  TEAE by system organ class: Musculoskeletal and Connective Tissue Disorders, occurrences m: 1
  TEAE by system organ class: Musculoskeletal and Connective Tissue Disorders, participants n (%): 1 (16.7%)
  TEAE by system organ class: Nervous System Disorders, occurrences m: 2
  TEAE by system organ class: Nervous System Disorders, participants n (%): 2 (33.3%)
  TEAE by system organ class: Respiratory, Thoracic, and Mediastinal disorders, participants n (%): 0
  TEAE by system organ class: Skin and Subcutaneous Tissue Disorders, occurrences m: 2
  TEAE by system organ class: Skin and Subcutaneous Tissue Disorders, participants n (%): 2 (33.3%)
  TEAE by system organ class: Vascular Disorders, participants n (%): 0
  TEAE severity Grade 1, occurrences m: 19
  TEAE severity Grade 1, participants n (%): 6 (100%)
  TEAE severity Grade 2, occurrences m: 1
  TEAE severity Grade 2, participants n (%): 1 (16.7%)
  TEAE severity Grade 3, participants n (%): 0
  TEAE severity Grade 4, participants n (%): 0
  TEAE severity Grade 5, participants n (%): 0
  Treatment-related TEAE: Abdominal distension, participants n (%): 0
  Treatment-related TEAE: Blood and Lymphatic System Disorders, participants n (%): 0
  Treatment-related TEAE: Constipation, participants n (%): 0
  Treatment-related TEAE: Diarrhea, participants n (%): 0
  Treatment-related TEAE: Dizziness, occurrences m: 1
  Treatment-related TEAE: Dizziness, participants n (%): 1 (16.7%)
  Treatment-related TEAE: Feeling hot, participants n (%): 0
  Treatment-related TEAE: Gastrointestinal Disorders, occurrences m: 1
  Treatment-related TEAE: Gastrointestinal Disorders, participants n (%): 1 (16.7%)
  Treatment-related TEAE: General Disorders and Administration Site Conditions, occurrences m: 7
  Treatment-related TEAE: General Disorders and Administration Site Conditions, participants n (%): 6 (100%)
  Treatment-related TEAE: Headache, occurrences m: 1
  Treatment-related TEAE: Headache, participants n (%): 1 (16.7%)
  Treatment-related TEAE: Infusion related reaction, participants n (%): 0
  Treatment-related TEAE: Infusion site discomfort, occurrences m: 1
  Treatment-related TEAE: Infusion site discomfort, participants n (%): 1 (16.7%)
  Treatment-related TEAE: Infusion site pain, occurrences m: 3
  Treatment-related TEAE: Infusion site pain, participants n (%): 3 (50.0%)
  Treatment-related TEAE: Infusion site reaction, occurrences m: 2
  Treatment-related TEAE: Infusion site reaction, participants n (%): 2 (33.3%)
  Treatment-related TEAE: Infusion site swelling, occurrences m: 1
  Treatment-related TEAE: Infusion site swelling, participants n (%): 1 (16.7%)
  Treatment-related TEAE: Injury, Poisoning, and Procedural Complications, participants n (%): 0
  Treatment-related TEAE: Macule, occurrences m: 1
  Treatment-related TEAE: Macule, participants n (%): 1 (16.7%)
  Treatment-related TEAE: Musculoskeletal and Connective Tissue Disorders, participants n (%): 0
  Treatment-related TEAE: Myalgia, participants n (%): 0
  Treatment-related TEAE: Nervous system disorders, occurrences m: 2
  Treatment-related TEAE: Nervous system disorders, participants n (%): 2 (33.3%)
  Treatment-related TEAE: Oropharyngeal pain, participants n (%): 0
  Treatment-related TEAE: Orthostatic hypotension, participants n (%): 0
  Treatment-related TEAE: Phlebitis, participants n (%): 0
  Treatment-related TEAE: Respiratory, Thoracic, and Mediastinal disorders, participants n (%): 0
  Treatment-related TEAE: Skin and Subcutaneous Tissue Disorders, occurrences m: 1
  Treatment-related TEAE: Skin and Subcutaneous Tissue Disorders, participants n (%): 1 (16.7%)
  Treatment-related TEAE: Thrombocytopenia, participants n (%): 0
  Treatment-related TEAE: Vascular Disorders, participants n (%): 0
  Treatment-related TEAE: Vessel puncture site erythema, participants n (%): 0
  Treatment-related TEAE: Vessel puncture site pain, participants n (%): 0
  Treatment-related TEAE: Vomiting, occurrences m: 1
  Treatment-related TEAE: Vomiting, participants n (%): 1 (16.7%)
Cohorts 1-4
  adverse events judged Grade 3 or higher: none
  changes in laboratory parameters: No clinically significant changes
  related IRRs, events: 13
  serious adverse events (SAEs) or deaths: no reports
  subjects with related IRRs: 7
  subjects with study drug infusion interrupted: 3
Cohorts 1-4 (0.05-0.5 mg/kg IV), 29 subjects in the SEQ ID NO: 1 arm
  subjects with at least one TEAE: 25 (86.2%) subjects (%)
Cohorts 1-4, 29 subjects
  TEAEs in SOC General disorders and administration site conditions: 24.1%
  TEAEs in SOC Injury, poisoning, and procedural complication: 48.3%
  Vascular access site pain: 34.5%
  subjects reporting Grade 2 TEAEs: 13.8%
  subjects with treatment related-TEAEs: 24.1%
Cohorts 1-4, 29 subjects in the SEQ ID NO: 1 arm
  total TEAEs reported: 52
Cohorts 1-5
  AEs judged Grade 3 or higher: none
  serious TEAEs: no reports
  treatment-emergent DLTs: no reports
Cohorts 1-5, 35 participants
  TEAEs in SOC General disorders and administration site conditions: 37.1%
  TEAEs in SOC Injury, Poisoning, and Procedural Complications: 51.4%
  participants with at least 1 TEAE deemed related to treatment: 37.1%
  participants with at least 1 TEAE leading to study drug discontinuation: 5.7%
  total TEAE events: 72
Cohorts 1-5, 35 participants (n=10)
  Vascular access site pain: 28.6%
Cohorts 1-5, by treatment assignment or dose level
  Holter monitoring and electrocardiograms: no trends of concern
[8]
  hematology and coagulation: no clinically significant patterns of change
  serum chemistry: no clinically significant patterns of change
Cohorts 1-5, of 47 participants, all in active treatment group
  participants with study drug infusion interrupted: 8 (17.0%) participants (%)
Pooled SEQ ID NO: 1 (N = 29)
  Participants Reporting at least One Related TEAE, %: 24.1%
  Related TEAE Blood and lymphatic system disorders, n participants: 0
